Test results taken from article PMC2999418, “Biological Activity and Binding Site Characteristics of the PA1b Entomotoxin on Insects from Different Orders” (Journal of Insect Science, 2007).

What was measured:
Drosophila melanogaster = details: cited from earlier work
Protocol: However, diet is not sufficient alone to explain insensitivity, as the three aphid species tested were assayed on the same artificial diet with very different results. We can thus suppose ...

[1] = target: PA1b binding protein on membrane extracts; assay: 125I-PA1b binding (competition) on insect membrane extracts; parameters: species or system Acyrthosiphon pisum; details: A. pisum membrane extracts; competition with purified 3741 isoform
Protocol: The isolation of membrane proteins for binding studies was performed as described by Gressent et al. ([2003]). For PA1b degradation tests, insect extracts were prepared as follows, 1 g of insects were ground with a mortar and pestle in liquid nitrogen. The resulting powder was resuspended in 2 ml of extraction buffer (20 mM Tris-HCl pH 8; 0.25 M sucrose; 2 mM MgCl2). The slurry was centrifuged for 2 min at 1000 g, and the supernatant was stored at -2O°C until required. All the operations were performed at 4°C.
The peptidic toxin PA1b-3471 isoform was labelled with I^125 to a specific radioactivity of about 900 Ci.mmor^-1, and then used for binding studies with membrane extracts, according to Gressent et al. ([2003]).
PA1b binding activity was present in all insect species, except for the resistant weevil strains and the pea specific pest Bruchus pisorum, regardless of the sensitivity or insensitivity of these insects to PA1b toxicity, as evaluated from our insect bioassays. […] The relative abundance of the binding sites was also slightly different in this group of species, varying from 10 pmol/mg of protein for T. pretiosum to a maximum of 79 pmol/mg of protein for M. persicae.

## ASCNGVCSPFEMPPCGTSACRCIPVGLVIGYCR NPSG (bicyclic or more) [PA1b, plant peptide of 37 amino acids purified from pea (Pisum sativum) seeds; entomotoxic cystine-knot peptide with three disulfide bonds]
Drosophila melanogaster; fruit-based mixture diet, dose similar to that used on other insects, delayed larval development, increased larval mortality, ref Gressent, unpublished results
  toxicity to larvae grown on a fruit-based mixture: significantly toxic
Drosophila melanogaster; ref Delobel et al.1998
  sensitivity to the toxin: insensitive
[1]
  Kd: 58 nM
